Laboratory results taken from patent US20080096850A1 (priority 2001, published 2008).

Assays:
Format in all cases: cell-based, Staphylococcus aureus
[1] = system: TSST-1 production by S. aureus (MN8)
[2] = system: TSST-1 production by S. aureus FRI-1187
[3] = system: TSST-1 production by S. aureus FRI-1169
[4] = system: S. aureus (MN8)

In the case of Oc1c(Cl)cc(Cl)c(Cl)c1Cc1c(O)c(Cl)cc(Cl)c1Cl [Hexachlorophene, hexachlorophene], the “ELISA: TSST-1 ng/OD unit” value [1] is reported as 330 ng/OD unit.

With Oc1cc(Cl)ccc1Oc1ccc(Cl)cc1Cl [Triclosan, triclosan] the “ELISA: TSST-1 ng/OD unit” value [2] was 95 ng/OD unit, the “Reduction of Toxin %” value [2] was 86% and the “ELISA: TSST-1 ng/OD unit” value [3] was 40 ng/OD unit. The “Reduction of Toxin %” value [3] was 96%.

For “4-hydroxydiphenyl methane [4-Hydroxydiphenyl-methane]”, the CFU/mL [4] was 1.1E+08 CFU/mL, the “Optical Density 600 nm” value [4] was 0.581 and the “ELISA: TSST-1 ng/OD unit” value [1] was 785 ng/OD unit.
